From patent US10603319B2, “Pyrimidine derivatives and their use in treating or preventing a respiratory syncytial virus infection” (REVIRAL LIMITED, priority 2016, dated 2020)

Tested on: RSV A2 VR-1540
Test: Plaque Reduction Assay 2 (HEp-2 cells, virospot count)
Assay type: cell-based
Conditions: human respiratory syncytial virus, 24 h; RSV A2, HEp-2 cells, 1 day
Source text: Plaque Reduction Assay 2:
This RSV plaque reduction assay is an infectivity assay which allows quantification of the number of infectious units in a distinct foci of RSV infection. This is indicated by zones of viral antigen detected by specific antibody staining within a monolayer of otherwise healthy tissue culture cells. As each plaque originates from a single infectious virus particle an accurate calculation of the anti-viral effect can be obtained by counting plaques in the presence and absence of an anti-viral compound. HEp-2 cells (ATCC, CCL23) were passaged in flasks and seeded in 96-well plates in DMEM containing antibiotics and supplemented with 10% FBS. During inoculation and subsequent incubation, cells were cultured in DMEM containing 3% FBS. 100 plaque forming unit (PFU)/well of RSV (RSV A2 VR-1540) was mixed with ten serial dilutions of compound. Subsequently, 100 μL of the virus/compound mixtures was added to confluent HEp-2 cell monolayers. The cells and virus/compound mixtures were incubated at 35° C. in a humidified 5% CO2 incubator for 1 day.
Cells were washed twice with PBS before adding 50% v/v EtOH/MeOH, and then stored at −20° C. On the day of the staining, fixative was first removed from the plates. Plates were washed 3× with PBS. A pre-titrated amount of the primary antibody was added in 60 μL PBS/2% milk powder, and plates incubated for 1 h at rt. The plates were washed 3× with PBS/0.05% Tween20 before addition of goat anti-mouse horse radish peroxidase in 60 μL PBS/2% milk powder, and incubated for 1 h at rt. Following three wash steps with PBS/0.05% Tween20, 60 μL ready-to-use TrueBlue was added and plates were incubated at rt for 10-15 min before adding MilliQ water. Plates were washed once with water, incubated for 30-60 min and after removal of water, air-dried in the dark.
Plates were scanned and analyzed using the Immunospot S6 UV analyzer, which is equipped with BioSpot analysis software for counting immunostained plaques (virospots). Plaque counts were used to calculate % infection relative to the mean of the spot count (SC) in the virus control wells for RSV. IC50/IC90 values were calculated as 50% or 90% reduction in signal, respectively, by interpolation of inhibition curves fitted with a 4-parameter nonlinear regression with a variable slope in GraphPad 5.0 (Prism).

NC1CCN(c2ncc(CN3C(=O)C4(CC4)c4ccc(F)cc43)c(N[C@H]3CC[C@H](O)CC3)n2)C1 (stereo partly shown) [Compound 2, 1′-((2-(3-Aminopyrrolidin-1-yl)-4-(((1r,4r)-4-hydroxycyclohexyl)amino)pyrimidin-5-yl)methyl)-6′-fluorospiro[cyclopropane-1,3′-indolin]-2′-one]
IC50: 58 nM
